In US10111847B2, “Compounds and methods for modulating vascular injury” (The Regents of the University of California, priority 2012, dated 2018):

Assays:
NOX4 = experiment: TNFα induced NADPH-oxidase 4 expression, western blot; format: cell-based, human; details: 30 min pretreatment, TNFα 10 ng/ml 4 hr; sv-VSMCs
Procedure: Mar-1. VSMCs and ECs were lysed in buffer (20 mM Tris-Hcl, 137 mM NaCl, 10% Glycerol, 1% NP-40) with protease and phosphatase inhibitors (Halt inhibitor capsules, Pierce, Inc) by sonication on ice. The lysates were instantly snap frozen in liquid nitrogen and thawed back later for western blotting. After centrifugation (15,000 g for 20 minutes), the whole cell extract (supernatant) was collected and was heated at 100° C. in Laemlli buffer for 6 minutes. Lysates were run on Mini-Protean TGX gels
(Biorad) and transferred on PVDF membranes which were probed with appropriate primary and secondary antibodies and visualized for quantitation using q-dot nanocrystals (Life Technologies, Inc).
NADPH oxidases (NOX) are the dominant source of superoxide generation in blood vessels and have been strongly implicated in vascular injury. NOX4 is a dominant isoform bound in VSMC and blood vessels. Regulation of NOX4 expression and activity therefore is of interest. Human sv-VSMCs were pretreated with 7S-Maresin-1 or vehicle for 30 min, followed by TNFα at 10 ng/ml for 4 hr. Whole cell lysates were blotted for NOX4 (Abcam Inc.) and beta-actin (Sigma).
FIG. 14. NOX4 and beta-actin western blotting image is representative of three independent experiments. Bar graph represents net quantitative densitometry analysis. N=3. […]

p65 subunit = experiment: Nuclear translocation of p65 subunit in sv-ECs (immunofluorescence); format: cell-based, human; details: 100 nm, 30 min; TNFα 1 ng/ml 2 hrs
Procedure: Immunofluorescence for p65 (RelA): 15000 VSMCs or 30000 ECs were seeded on a 8-well chamber slide. Cells received 30 min of Maresin-1 pretreatment, followed by TNF-α for 2 hr. Cells were fixed in 2% paraformaldehyde, followed by permeabilization with ice-cold acetone (10 min) and 1% Triton X-100 (20 min). Cells were incubated overnight in a humidified chamber with anti-p65 antibody (Santa Cruz Biotechnology Inc.) followed by Alexa-fluor 488 tagged secondary antibody (Life Technologies) and were visualized under a fluorescent microscope.
ECs were grown in chamber slides and treated with vehicle or 100 nm of 7S-Maresin-1 for 30 min, followed by TNFα (1 ng/ml) for 2 hrs. Cells were fixed and subsequently stained with anti-p65 (Santa Cruz Biotechnology) and secondary antibodies (Alexa-488).
FIGS. 17A-17D. Representative images of Ctrl (A), TNFα (B), 7S-Maresin-1+TNFα. (C). (D) Mean fluorescence of nucleus and cytoplasm were quantified from all groups and the net result of the ratio of nucleus over cytoplasmic mean fluorescence is depicted in the bar graph, as a measure of relative p65 nuclear translocation. (N>=3). P≤0.05, One-way ANOVA with Dunnett's post hoc test. *: P≤0.05 compared to control, unpaired t-test. †: P≤0.05 compared to TNFα, unpaired t-test. Error bars: SEM.

human sv-VSMCs = experiment: PDGF-BB induced transwell migration of sv-VSMCs (Maresin-1); format: cell-based; details: 1-100 nM; PDGF-BB 50 ng/ml; 15 hr
Procedure: MaR-1. VSMCs were serum starved for 1-2 days, then trypsinized and seeded in 8-μm-pore transwell inserts (Corning Glass Works, Corning, N.Y.) at a concentration of 30,000 cells per well. Cells were allowed to attach for 2 hr, then pretreated with Maresin-1 (1-100 nM) or vehicle (0.1% ethanol) control for 30 min before the addition of PDGF-BB (50 ng/ml; Sigma-Aldrich, St. Louis, Mo., USA) to the lower wells. 7S-Maresin-1 was added to both upper and lower wells for the full duration of chemotaxis experiment (15 hr). The membranes were fixed with methanol and cut out, mounted with DAPI, and migrated cells were counted under fluorescence microscope. Ten images per well were taken randomly under a 10× magnification and number of cells were counted in all the images to calculate mean for a given well.
VSMCs were pre-treated with vehicle or 7S-Maresin-1 for 30 min in a transwell insert before adding […] (50 ng/ml) to the outer chamber. Migrated VSMCs were fixed with methanol, stained with DAPI and counted under a fluorescent microscope.
FIGS. 20A-20D. Representative image of nine independent experiments. (A) Vehicle Control. (B) PDGF-BB, 50 ng/ml. (C) 7S-Maresin-1, 1 nm+PDGF-BB, 50 ng/ml. (D) 7S-Maresin-1, 100 nm+PDGF-BB, 50 ng/ml. (E) Graphical summary of nine independent experiments. P≤0.01, One-way ANOVA with Dunnett's post hoc test. *P<0.05 compared to […] (50 ng/ml). […]

carotid artery = experiment: Mouse carotid artery ligation model, neointima formation; format: in vivo, FVB Mice; details: intraperitoneal 100 ng/dose on days 0, 1, 3, 5 and 7; sacrificed at 14 days
Procedure: To examine the potential therapeutic effects of systemic administration of pro-resolving mediators in acute vascular injury, a standardized mouse model of carotid ligation was employed. FVB Mice (N=23) were treated with intraperitoneal administration of RvD2 (100 ng/dose), 7R Mar-1 (100 ng/dose) or vehicle on days 0 (4 hrs prior to carotid injury), 1, 3, 5 and 7. Total dose received was 500 ng/mouse. Unilateral carotid ligation was performed as a standardized model of vascular injury, induced by low shear. Animals were then sacrificed at 14 days and perfusion-fixed vessels explanted for analysis. Following elastin staining, neointima (NI) and medial (M) compartments were measured by a blinded observer, and ratios (area and average wall thickness) calculated. Analysis was performed at mid CCA level (2.5 mm from ligature).
FIG. 22. (A)-(C), depict a cross-section of a carotid artery at mid CCA level (2.5 mm from ligature) from carotid ligation mouse model administered vehicle (A), RvD2 (B), or 7R-Mar-1 (C). (D)-(E) depict NUM ratio of the cross-section of the carotid artery at mid CCA level from carotid ligation mouse model administered vehicle, RvD2, or 7R-Mar-1. […]

| SMILES | TNFα induced NADPH-oxidase 4 expression (NOX4) | nuclear translocation of p65 subunit in human sv-ECs (p65 subunit) | PDGF-BB induced migration in human sv-VSMCs (human sv-VSMCs) | neointima formation following carotid artery ligation (carotid artery) |
| --- | --- | --- | --- | --- |
| CC/C=C\C/C=C\C[C@H](O)\C=C/C=C/C=C/[C@@H](O)C/C=C\CCC(=O)O [7S-Maresin-1, 7S,14R-dihydroxydocosa-4Z,8E,10Z,12Z,16Z,19Z-hexaenoic acid] | Attenuates | Inhibits | Dose-Dependently Attenuates | – |
| CC/C=C\C[C@H](O)[C@H](O)/C=C/C=C/C=C\C=C\[C@@H](O)C/C=C\CCC(=O)O [RvD2, resolvin D2] | – | – | – | Reduces |
